Data from PMC10999543, “Identification of kinase modulators as host-directed therapeutics against intracellular methicillin-resistant Staphylococcus aureus” (Frontiers in Cellular and Infection Microbiology, 2024).
Read-outs that look alike come from different tables or passages of the source.

How the values were obtained:
intracellular MRSA = type: cell-based, Staphylococcus aureus; conditions: for z-scoreMRSA+ mean: mean of 3 replicates; for z-scoreMRSA+ rep 1 / %GFP+ rep 1: replicate 1; for z-scoreMRSA+ rep 2 / %GFP+ rep 2: replicate 2; for z-scoreMRSA+ rep 3 / %GFP+ rep 3: replicate 3
Method in brief: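 HeLa cells were infected with GFP-expressing MRSA (mean MOI 6.8) for 1 h, treated with 30 µg/ml gentamicin for 15 min, then incubated overnight at 37°C with kinase inhibitors and 5 µg/ml gentamicin. Flow cytometry gave % GFP-positive cells, with cell count as viability. Hits were z-score ≤ -2 (infection) and ≥ -3 (count) versus DMSO.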

HeLa cells = assay: Compound screen by flow cytometry: HeLa cell count as surrogate readout of cell viability (z-scoreHeLa); type: cell-based, human
Method in brief: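 The viability surrogate was the count of fixed HeLa cells by flow cytometry, converted to z-scores against DMSO controls with values deviating two-fold excluded. Before counting, cells had been infected with MRSA for 1 h and cleared of extracellular bacteria with gentamicin. They were then exposed overnight to kinase inhibitors in triplicate.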

[1] = PKIS compound screen, Yes/No call
[2] = PKIS compound screen, Yes/No call (effect without cell death)
[3] = PKIS compounds raw data, MRSA-infected HeLa cells
[4] = PKIS compound screen, mean of 3 replicates
[5] = PKIS compound screen, replicate 1
[6] = PKIS compound screen, replicate 2
[7] = PKIS compound screen, replicate 3
[8] = PKIS compounds raw data, replicate 1, HeLa cell count
[9] = PKIS compounds raw data, replicate 2, HeLa cell count
[10] = PKIS compounds raw data, replicate 3, HeLa cell count
[11] = PKIS compound screen raw data, MRSA-infected HeLa cells
[12] = Yes/No: effect without cell death
[13] = compound screen, MRSA-infected HeLa cells
[14] = PKIS compound screen raw data, HeLa cell count, replicate 1
[15] = PKIS compound screen raw data, HeLa cell count, replicate 2
[16] = PKIS compound screen raw data, HeLa cell count, replicate 3
[17] = compound screen, HeLa cell count, mean of 3 replicates
[18] = compound screen, HeLa cell count, replicate 1
[19] = compound screen, HeLa cell count, replicate 2
[20] = compound screen, HeLa cell count, replicate 3
[21] = PKIS compound screen, MRSA-infected HeLa cells
[22] = PKIS compound screen, Yes/No call on z-scoreMRSA+
[23] = PKIS compound screen, HeLa cell count, mean of 3 replicates
[24] = PKIS compound screen, HeLa cell count, replicate 1
[25] = PKIS compound screen, HeLa cell count, replicate 2
[26] = PKIS compound screen, HeLa cell count, replicate 3
[27] = PKIS compound screen, Yes/No call on z-scoreHeLa

Molecule	effect (intracellular MRSA; [1])	hit (intracellular MRSA; [2])	z-scoreMRSA+ mean (intracellular MRSA; PKIS compound screen)	z-scoreMRSA+ rep 1 (intracellular MRSA; PKIS compound screen)	z-scoreMRSA+ rep 2 (intracellular MRSA; PKIS compound screen)	z-scoreMRSA+ rep 3 (intracellular MRSA; PKIS compound screen)	%GFP+ rep 1 (intracellular MRSA; [3])	%GFP+ rep 2 (intracellular MRSA; [3])	%GFP+ rep 3 (intracellular MRSA; [3])	cell death (HeLa cells; [1])	z-scoreHeLa mean (HeLa cells; [4])	cell count rep 1 (HeLa cells; [8])	cell count rep 2 (HeLa cells; [9])	cell count rep 3 (HeLa cells; [10])	%GFP+ rep 1 (intracellular MRSA; [11])	%GFP+ rep 2 (intracellular MRSA; [11])	%GFP+ rep 3 (intracellular MRSA; [11])	cell count rep 1 (HeLa cells; [14])	cell count rep 2 (HeLa cells; [15])	cell count rep 3 (HeLa cells; [16])	further results
COc1cccc(C2=C(Nc3ccc(Cl)c(C(=O)O)c3)C(=O)NC2=O)c1 [SB-390769]	No	No	0.47	-0.05	0.72	0.73	26.8%	29.8%	31.2%	No	1.73	7373	8825	9583	–	–	–	–	–	–	z-scoreHeLa rep 1 (HeLa cells; [5]): 0.80; z-scoreHeLa rep 2 (HeLa cells; [6]): 1.87; z-scoreHeLa rep 3 (HeLa cells; [7]): 2.53
CS(=O)(=O)Cc1ccc(Nc2nccc(-c3c(-c4cccc(NC(=O)C5CCCCC5)c4)nn4ncccc34)n2)cc1 [GSK350559A]	–	–	–	–	–	–	–	–	–	–	–	–	–	–	15.3%	15.9%	16.3%	4919	4109	4941	effect (intracellular MRSA; Yes/No call from z-scoreMRSA+): No; hit (intracellular MRSA; [12]): No; z-scoreMRSA+ mean (intracellular MRSA; [13]): -1.91; z-scoreMRSA+ rep 1 (intracellular MRSA; [13]): -2.32; z-scoreMRSA+ rep 2 (intracellular MRSA; [13]): -1.63; z-scoreMRSA+ rep 3 (intracellular MRSA; [13]): -1.77; cell death (HeLa cells; Yes/No call from z-scoreHeLa): No; z-scoreHeLa mean (HeLa cells; [17]): 0.0244; z-scoreHeLa rep 1 (HeLa cells; [18]): 0.41; z-scoreHeLa rep 2 (HeLa cells; [19]): -0.15; z-scoreHeLa rep 3 (HeLa cells; [20]): -0.19
Cc1cccc(-c2nc(Nc3ccncc3)c3ccccc3n2)n1 [GW855857X]	–	–	–	–	–	–	–	–	–	–	–	–	–	–	26.0%	24.5%	21.6%	3133	3003	4517	effect (intracellular MRSA; Yes/No call from z-scoreMRSA+): No; hit (intracellular MRSA; [12]): No; z-scoreMRSA+ mean (intracellular MRSA; [13]): 0.15; z-scoreMRSA+ rep 1 (intracellular MRSA; [13]): 0.17; z-scoreMRSA+ rep 2 (intracellular MRSA; [13]): 0.46; z-scoreMRSA+ rep 3 (intracellular MRSA; [13]): -0.18; cell death (HeLa cells; Yes/No call from z-scoreHeLa): No; z-scoreHeLa mean (HeLa cells; [17]): -0.78; z-scoreHeLa rep 1 (HeLa cells; [18]): -0.88; z-scoreHeLa rep 2 (HeLa cells; [19]): -1.00; z-scoreHeLa rep 3 (HeLa cells; [20]): -0.46
COC(=O)c1cccc(NC(=O)NC2CCN(c3ccnc(Nc4ccc(OC)cc4)n3)C2)c1 (stereo not drawn) [GSK1379746A]	No	No	-0.13	-0.05	-0.0265	-0.31	26.8%	25.9%	25.6%	No	-0.86	4181	4486	4898	19.0%	17.4%	21.2%	24857	18367	14326	z-scoreMRSA+ mean (intracellular MRSA; [21]): -0.17; z-scoreMRSA+ rep 1 (intracellular MRSA; [21]): 0.06; z-scoreMRSA+ rep 2 (intracellular MRSA; [21]): -0.55; z-scoreMRSA+ rep 3 (intracellular MRSA; [21]): -0.01; effect (intracellular MRSA; [22]): No; z-scoreHeLa mean (HeLa cells; [23]): -0.99; z-scoreHeLa rep 1 (HeLa cells; [24]): -0.90; z-scoreHeLa rep 2 (HeLa cells; [25]): -1.18; z-scoreHeLa rep 3 (HeLa cells; [26]): -0.90; cell death (HeLa cells; [27]): No; z-scoreHeLa rep 1 (HeLa cells; [5]): -1.12; z-scoreHeLa rep 2 (HeLa cells; [6]): -1.01; z-scoreHeLa rep 3 (HeLa cells; [7]): -0.44
Clc1ccc(CNc2nccc(-c3cnn4ncccc34)n2)cc1 [GW781673X]	–	–	–	–	–	–	13.1%	14.6%	14.3%	–	–	3767	3267	5990	–	–	–	–	–	–	effect (intracellular MRSA; Yes/No call from z-scoreMRSA+): No; hit (intracellular MRSA; [12]): No; z-scoreMRSA+ mean (intracellular MRSA; [13]): -0.04; z-scoreMRSA+ rep 1 (intracellular MRSA; [13]): -0.0227; z-scoreMRSA+ rep 2 (intracellular MRSA; [13]): 0.37; z-scoreMRSA+ rep 3 (intracellular MRSA; [13]): -0.47; cell death (HeLa cells; Yes/No call from z-scoreHeLa): No; z-scoreHeLa mean (HeLa cells; human): -0.71; z-scoreHeLa rep 1 (HeLa cells; human): -0.91; z-scoreHeLa rep 2 (HeLa cells; human): -0.76; z-scoreHeLa rep 3 (HeLa cells; human): -0.46
Cc1c(Cn2ccn3c(=O)cc(N4CCOCC4)nc23)cccc1C(F)(F)F [GSK2289044B]	–	No	–	–	–	–	–	–	–	–	–	–	–	–	13.5%	15.4%	14.7%	23358	26653	34666	z-scoreMRSA+ mean (intracellular MRSA; [21]): -1.29; z-scoreMRSA+ rep 1 (intracellular MRSA; [21]): -1.38; z-scoreMRSA+ rep 2 (intracellular MRSA; [21]): -0.94; z-scoreMRSA+ rep 3 (intracellular MRSA; [21]): -1.55; effect (intracellular MRSA; [22]): No; z-scoreHeLa mean (HeLa cells; [23]): -0.65; z-scoreHeLa rep 1 (HeLa cells; [24]): 0.49; z-scoreHeLa rep 2 (HeLa cells; [25]): -1.52; z-scoreHeLa rep 3 (HeLa cells; [26]): -0.93; cell death (HeLa cells; [27]): No
CNC(=O)c1cc(-c2ccc(F)cc2)cc(-c2ccc(S(=O)(=O)N3CCCC3)cc2)c1N [GSK635416A]	No	No	-0.63	-0.38	-0.50	-1.00	12.0%	12.0%	12.5%	No	-0.10	4473	4269	6877	–	–	–	–	–	–	z-scoreHeLa rep 1 (HeLa cells; [5]): -0.27; z-scoreHeLa rep 2 (HeLa cells; [6]): 0.000722; z-scoreHeLa rep 3 (HeLa cells; [7]): -0.04
N#Cc1ccc(CCNc2nccc(-c3cccc(CN4CCNCC4)c3)n2)cc1 [GSK2137462A]	No	No	-0.14	-0.07	-0.12	-0.24	26.7%	25.4%	26.0%	No	0.08	5843	6203	5956	14.3%	14.4%	16.1%	48589	40019	40009	effect (intracellular MRSA; Yes/No call from z-scoreMRSA+): No; hit (intracellular MRSA; [12]): No; z-scoreMRSA+ mean (intracellular MRSA; [13]): -1.32; z-scoreMRSA+ rep 1 (intracellular MRSA; [13]): -1.20; z-scoreMRSA+ rep 2 (intracellular MRSA; [13]): -1.37; z-scoreMRSA+ rep 3 (intracellular MRSA; [13]): -1.40; z-scoreHeLa rep 1 (HeLa cells; [5]): -0.12; z-scoreHeLa rep 2 (HeLa cells; [6]): 0.13; z-scoreHeLa rep 3 (HeLa cells; [7]): 0.23; cell death (HeLa cells; Yes/No call from z-scoreHeLa): No; z-scoreHeLa mean (HeLa cells; [17]): 3.25; z-scoreHeLa rep 1 (HeLa cells; [18]): 3.12; z-scoreHeLa rep 2 (HeLa cells; [19]): 2.53; z-scoreHeLa rep 3 (HeLa cells; [20]): 4.11
O=C(Nc1n[nH]c2nc(-c3ccccc3)c(Br)cc12)C1CC1 [SB-708998]	No	No	0.31	0.75	-0.18	0.38	30.9%	25.1%	29.3%	No	0.29	5956	6708	6327	14.4%	13.9%	15.7%	29154	28936	20350	z-scoreMRSA+ mean (intracellular MRSA; [21]): -1.40; z-scoreMRSA+ rep 1 (intracellular MRSA; [21]): -1.17; z-scoreMRSA+ rep 2 (intracellular MRSA; [21]): -1.50; z-scoreMRSA+ rep 3 (intracellular MRSA; [21]): -1.51; effect (intracellular MRSA; [22]): No; z-scoreHeLa mean (HeLa cells; [23]): 0.24; z-scoreHeLa rep 1 (HeLa cells; [24]): -0.18; z-scoreHeLa rep 2 (HeLa cells; [25]): 0.63; z-scoreHeLa rep 3 (HeLa cells; [26]): 0.28; cell death (HeLa cells; [27]): No; z-scoreHeLa rep 1 (HeLa cells; [5]): -0.0543; z-scoreHeLa rep 2 (HeLa cells; [6]): 0.46; z-scoreHeLa rep 3 (HeLa cells; [7]): 0.46
SB-675259-M	No	No	-0.33	-0.0227	0.37	-1.33	13.1%	14.6%	11.4%	–	–	–	–	–	–	–	–	–	–	–	cell count rep 1 (HeLa cells): 2153; cell count rep 2 (HeLa cells): 1700; cell count rep 3 (HeLa cells): 5596; cell death (HeLa cells): No; z-scoreHeLa mean (HeLa cells): -1.66; z-scoreHeLa rep 1 (HeLa cells): -2.37; z-scoreHeLa rep 2 (HeLa cells): -1.94; z-scoreHeLa rep 3 (HeLa cells): -0.65
